Data on 18 molecules can be found in US8569292B2, “Cyclic inhibitors of 11β-hydroxysteroid dehydrogenase 1” (Vitae Pharmaceuticals, Inc., priority 2008, dated 2013).

Structures are written as SMILES. Some results are limits rather than exact numbers.

Test [1] has as its target T1, CYP2C9 (Homo sapiens, UniProt P11712).
T1 construct: purchased Invitrogen 2859; host or cells: insect cells infected with baculovirus (microsomes)
Description: Biological Test Example 9: CYP2C9 inhibition (Invitrogen kit, fluorogenic OOMR). The class given is in vitro ADME.

Test [2] deals with T2, 11β-HSD1 (Homo sapiens, UniProt P28845). Description: biochemical. The conditions noted are these: for inhibition at 0.1 µM: read-out: Average % inhibition at 100 nM.
T2 sequence (P28845 whole entry): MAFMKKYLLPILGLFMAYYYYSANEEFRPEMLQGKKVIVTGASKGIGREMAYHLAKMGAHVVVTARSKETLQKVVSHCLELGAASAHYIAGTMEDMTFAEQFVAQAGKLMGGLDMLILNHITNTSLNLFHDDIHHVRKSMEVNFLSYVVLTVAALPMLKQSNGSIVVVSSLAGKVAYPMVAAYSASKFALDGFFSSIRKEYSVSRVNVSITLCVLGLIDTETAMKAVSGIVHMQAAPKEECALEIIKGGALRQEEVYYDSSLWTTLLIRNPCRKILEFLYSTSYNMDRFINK
Test [3] has as its target T2, 11β-HSD1. Description: Biological Test Example 4: microsomal 11β-HSD1 in the presence of 50% human plasma. The conditions noted are these: for Shift: IC50 in Test Example 4 divided by IC50 in Test Example 1.
The mark [4] stands for this setting: Biological Test Example 1 IC50 (nM).
[5] abbreviates: IC50 Range, Biological Test Example 1.

T1 sequence (P11712 whole entry): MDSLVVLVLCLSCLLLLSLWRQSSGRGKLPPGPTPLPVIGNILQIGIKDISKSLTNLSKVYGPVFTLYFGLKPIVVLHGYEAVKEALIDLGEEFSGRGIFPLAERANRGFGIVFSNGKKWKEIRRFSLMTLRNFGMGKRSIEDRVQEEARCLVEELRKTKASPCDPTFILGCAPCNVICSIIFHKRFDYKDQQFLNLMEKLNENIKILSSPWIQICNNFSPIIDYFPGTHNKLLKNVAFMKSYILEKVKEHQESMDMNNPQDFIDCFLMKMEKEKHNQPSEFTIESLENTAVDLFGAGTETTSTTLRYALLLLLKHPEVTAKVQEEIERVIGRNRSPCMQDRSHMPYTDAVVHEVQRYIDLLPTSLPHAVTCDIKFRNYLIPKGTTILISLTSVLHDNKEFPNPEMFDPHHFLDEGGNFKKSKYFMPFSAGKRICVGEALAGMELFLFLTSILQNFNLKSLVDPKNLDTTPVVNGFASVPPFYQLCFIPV

For `C=CC[C@]1(c2ccc(F)cc2)CCN([C@@H](C)c2ccc(-c3cncc(F)c3)cc2)C(=O)O1` [EXAMPLE 51, (R)-6-allyl-6-(4-fluorophenyl)-3-((S)-1-(4-(5-fluoropyridin-3-yl)phenyl)ethyl)-1,3-oxazinan-2-one], the IC50 (in general, the concentration needed to halve the response being measured) in test [1] was 700 nM; in test [2] (setting [4]) it was 1.5 nM; in test [2] (setting [5]) it was below 100 nM; in test [3], 60.7 nM. For the same molecule, the inhibition (usually the drop in the measured response relative to a control, in per cent) at 0.1 µM in test [2] was determined as 96.1%. In test [3], the Shift came to 40.6.
Consider `COc1cncc(-c2ccc([C@H](C)N3CC[C@](CCCO)(c4ccc(F)cc4)OC3=O)cc2)c1` [EXAMPLE 53, (R)-6-(4-fluorophenyl)-6-(3-hydroxypropyl)-3-((S)-1-(4-(5-methoxypyridin-3-yl)phenyl)ethyl)-1,3-oxazinan-2-one], for which the IC50 in test [1] is 6600 nM; in test [2] (setting [4]), 1.3 nM; in test [2] (setting [5]), below 100 nM; in test [3] it was 18.5 nM. Further, in test [2], the inhibition at 0.1 µM was found to be 98.7%. Besides, the Shift in test [3] is listed as 14.6.
With `C=CC[C@]1(c2ccc(F)cc2)CCN([C@@H](C)c2ccc(-c3cncc(Cl)c3)cc2)C(=O)O1` [EXAMPLE 54, (R)-6-allyl-3-((S)-1-(4-(5-chloropyridin-3-yl)phenyl)ethyl)-6-(4-fluorophenyl)-1,3-oxazinan-2-one], the IC50 was 400 nM in test [1], 1 nM in test [2] (setting [4]), below 100 nM in test [2] (setting [5]) and 39.4 nM in test [3]. Besides, the inhibition at 0.1 µM in test [2] came to 97.1%. In addition, the Shift in test [3] was 38.4.
On to `C[C@@H](c1ccc(-c2ccccn2)cc1)N1CC[C@](CC(C)(C)O)(c2ccc(F)cc2)OC1=O` [EXAMPLE 58, (S)-6-(4-fluorophenyl)-6-(2-hydroxy-2-methylpropyl)-3-((S)-1-(4-(pyridin-2-yl)phenyl)ethyl)-1,3-oxazinan-2-one], for which the half-inhibitory concentration (IC50) in test [1] is 16900 nM; in test [2] (setting [4]), 0.8 nM; in test [2] (setting [5]) it was below 100 nM; in test [3] it was 7.2 nM. Besides, the inhibition at 0.1 µM in test [2] was determined as 97.4%.
Take `C[C@@H](c1ccc(-c2ccccn2)cc1)N1CC[C@](CCCO)(c2ccc(F)cc2)OC1=O` [EXAMPLE 59, (R)-6-(4-fluorophenyl)-6-(3-hydroxypropyl)-3-((S)-1-(4-(pyridin-2-yl)phenyl)ethyl)-1,3-oxazinan-2-one]: the IC50 in test [1] was 10900 nM; in test [2] (setting [4]) it was 0.5 nM; in test [2] (setting [5]) it was below 100 nM; in test [3], 5.1 nM. For the same molecule, the inhibition at 0.1 µM in test [2] worked out at 100%. In addition, the Shift in test [3] came to 9.9.
With `Cc1cccc(-c2ccc([C@H](C)N3CC[C@](CCCO)(c4ccc(F)cc4)OC3=O)cc2)n1` [EXAMPLE 62, (R)-6-(4-fluorophenyl)-6-(3-hydroxypropyl)-3-((S)-1-(4-(6-methylpyridin-2-yl)phenyl)ethyl)-1,3-oxazinan-2-one], the IC50 in test [1] was 10900 nM; in test [2] (setting [4]), 0.5 nM; in test [2] (setting [5]), below 100 nM; in test [3], 22.6 nM. The inhibition at 0.1 µM in test [2] amounted to 97.9%. Moreover, the Shift in test [3] was determined as 44.2.
Consider `COc1ccc(-c2ccc([C@H](C)N3CC[C@](CC(C)(C)O)(c4ccc(F)cc4)OC3=O)cc2)cn1` [EXAMPLE 64, (S)-6-(4-fluorophenyl)-6-(2-hydroxy-2-methylpropyl)-3-((S)-1-(4-(6-methoxypyridin-3-yl)phenyl)ethyl)-1,3-oxazinan-2-one], for which the IC50 in test [1] was 4700 nM; in test [2] (setting [4]), 0.8 nM; in test [2] (setting [5]), below 100 nM; in test [3], 6.2 nM. Besides, in test [2], the inhibition at 0.1 µM is 99.6%. In addition, in test [3], the Shift came out at 8.2.
For `COc1ccc(-c2ccc([C@H](C)N3CC[C@](CCCO)(c4ccc(F)cc4)OC3=O)cc2)cn1` [EXAMPLE 65, (R)-6-(4-fluorophenyl)-6-(3-hydroxypropyl)-3-((S)-1-(4-(6-methoxypyridin-3-yl)phenyl)ethyl)-1,3-oxazinan-2-one], the IC50 in test [1] is 4000 nM; in test [2] (setting [4]) it was 0.4 nM; in test [2] (setting [5]), below 100 nM; in test [3], 3.8 nM. In addition, the inhibition at 0.1 µM in test [2] came out at 99%. In addition, the Shift in test [3] is on record as 8.8.
As to `COc1ccc(-c2ccc([C@H](C)N3CC[C@](CCCNS(C)(=O)=O)(c4ccc(F)cc4)OC3=O)cc2)cn1` [EXAMPLE 67, N-(3-((R)-6-(4-fluorophenyl)-3-((S)-1-(4-(6-methoxypyridin-3-yl)phenyl)ethyl)-2-oxo-1,3-oxazinan-6-yl)propyl)methanesulfonamide], the IC50 in test [1] was 3800 nM; in test [2] (setting [4]), 0.7 nM; in test [2] (setting [5]), below 100 nM; in test [3], 6.7 nM. Besides, the inhibition at 0.1 µM in test [2] came to 101%. Also, the Shift in test [3] is on record as 9.9.
For the molecule `C[C@@H](c1ccc(-c2cncc(Cl)c2)cc1)N1CC[C@](CCCO)(c2ccc(F)cc2)OC1=O` [EXAMPLE 69, (R)-3-((S)-1-(4-(5-chloropyridin-3-yl)phenyl)ethyl)-6-(4-fluoroPhenyl)-6-(3-hydroxypropyl)-1,3-oxazinan-2-one], the 50% inhibitory concentration (IC50) is 2300 nM in test [1], 0.6 nM in test [2] (setting [4]), below 100 nM in test [2] (setting [5]) and 6.3 nM in test [3]. In test [2], the inhibition at 0.1 µM turned out to be 98.3%. The Shift in test [3] was found to be 9.8.
Turning to `Cc1nc(C)c(-c2ccc([C@H](C)N3CC[C@](CCCO)(c4ccc(F)cc4)OC3=O)cc2)s1` [EXAMPLE 83, (R)-3-((S)-1-(4-(2,4-dimethylthiazol-5-yl)phenyl)ethyl)-6-(4-fluorophenyl)-6-(3-hydroxypropyl)-1,3-oxazinan-2-one], the IC50 in test [1] was 3900 nM; in test [2] (setting [4]), 1 nM; in test [2] (setting [5]), below 100 nM; in test [3], 8.8 nM. The inhibition at 0.1 µM in test [2] was 94.7%. Moreover, the Shift in test [3] is 8.9.
Consider `C[C@@H](c1ccc(-c2ccccn2)cc1)N1CC[C@](CCCNS(C)(=O)=O)(c2ccccc2)OC1=O` [EXAMPLE 89, N-(3-((R)-2-oxo-6-phenyl-3-((S)-1-(4-(pyridin-2-yl)phenyl)ethyl)-1,3-oxazinan-6-yl)propyl)methanesulfonamide], for which the IC50 in test [1] is 13300 nM; in test [2] (setting [4]), 0.6 nM; in test [2] (setting [5]), below 100 nM; in test [3] it was 6.2 nM. Further, the inhibition at 0.1 µM in test [2] is 98.9%. Further, the Shift in test [3] was 10.5.
As for `C[C@@H](c1ccc(-c2cccnc2)cc1)N1CC[C@](CCCNS(C)(=O)=O)(c2ccccc2)OC1=O` [EXAMPLE 91, N-(3-((R)-2-oxo-6-phenyl-3-((S)-1-(4-(pyridin-3-yl)phenyl)ethyl)-1,3-oxazinan-6-yl)propyl)methanesulfonamide], the IC50 was 17300 nM in test [1], 1.4 nM in test [2] (setting [4]), below 100 nM in test [2] (setting [5]) and 13.7 nM in test [3]. In test [2], the inhibition at 0.1 µM was found to be 90.2%.
On to `COc1ccc(-c2ccc([C@H](C)N3CC[C@](CCCNS(C)(=O)=O)(c4ccccc4)OC3=O)cc2)cn1` [EXAMPLE 94, N-(3-((R)-3-((S)-1-(4-(6-methoxypyridin-3-yl)phenyl)ethyl)-2-oxo-6-phenyl-1,3-oxazinan-6-yl)propyl)methanesulfonamide], for which the IC50 in test [1] is 4500 nM; in test [2] (setting [4]), 0.5 nM; in test [2] (setting [5]), below 100 nM; in test [3] it was 5 nM. The inhibition at 0.1 µM in test [2] is 98.7%. The Shift in test [3] is recorded as 11.0.
For `C[C@@H](c1ccc(-c2ccn(C)n2)cc1)N1CC[C@](CCCO)(c2ccccc2)OC1=O` [EXAMPLE 100, (R)-6-(3-hydroxypropyl)-3-((S)-1-(4-(1-methyl-1H-pyrazol-3-yl)phenyl)ethyl)-6-phenyl-1,3-oxazinan-2-one], the IC50 in test [1] was 4500 nM; in test [2] (setting [4]), 1.2 nM; in test [2] (setting [5]) it was below 100 nM; in test [3] it was 6 nM. The inhibition at 0.1 µM in test [2] worked out at 93.1%. Besides, in test [3], the Shift is reported as 4.8.
Regarding `C[C@@H](c1ccc(-c2ncccn2)cc1)N1CC[C@](CCCO)(c2ccc(F)cc2)OC1=O` [EXAMPLE 113, (R)-6-(4-fluorophenyl)-6-(3-hydroxypropyl)-3-((S)-1-(4-(pyrimidin-2-yl)phenyl)ethyl)-1,3-oxazinan-2-one], the IC50 is 2900 nM in test [1], 7.4 nM in test [2] (setting [4]), below 100 nM in test [2] (setting [5]) and 22.8 nM in test [3]. In test [2], the inhibition at 0.1 µM is 92.4%. Besides, the Shift in test [3] was determined as 3.1.
Take `Cc1cc(-c2ccc([C@H](C)N3CC[C@](CC4(O)CC4)(c4ccc(F)cc4)OC3=O)cc2)ccn1` [EXAMPLE 115, (S)-6-(4-fluorophenyl)-6-((1-hydroxycyclopropyl)methyl)-3-((S)-1-(4-(2-methylpyridin-4-yl)phenyl)ethyl)-1,3-oxazinan-2-one]: the IC50 was 4400 nM in test [1], 1 nM in test [2] (setting [4]), below 100 nM in test [2] (setting [5]) and 10.3 nM in test [3]. The inhibition at 0.1 µM in test [2] stood at 95.1%. In addition, the Shift in test [3] was 10.2.
As to `Cc1cc(-c2ccc([C@H](C)N3CC[C@](CC(C)(C)C#N)(c4ccc(F)cc4)OC3=O)cc2)ccn1` [EXAMPLE 116, 3-((R)-6-(4-fluorophenyl)-3-((S)-1-(4-(2-methylpyridin-4-yl)phenyl)ethyl)-2-oxo-1,3-oxazinan-6-yl)-2,2-dimethylpropanenitrile], the 50% inhibitory concentration (IC50) is 5300 nM in test [1], 0.7 nM in test [2] (setting [4]), below 100 nM in test [2] (setting [5]) and 3.7 nM in test [3]. Also, in test [2], the inhibition at 0.1 µM amounted to 99.6%. The Shift in test [3] stood at 5.1.
